In publication PMC11313435, “Identification of Antioxidant Methyl Derivatives of Ortho-Carbonyl Hydroquinones That Reduce Caco-2 Cell Energetic Metabolism and Alpha-Glucosidase Activity” (International Journal of Molecular Sciences, 2024):
“Also recorded” adds a separate entry of the source.

Columns and labels:
Caco-2 cells [1] = experiment: Extracellular acidification rate and oxygen consumption rate in real time (Seahorse XFe96); type: cell-based, human; conditions: Caco-2, 100 µM; for Effect on max OCR: 24 h (Figures 3C, 4A-D); for Effect on basal mitochondrial OCR / Effect on glycolysis (ECAR) / Effect on glycolysis, cluster in dendrogram: 24 h; for Effect on basal mitochondrial OCR: compared to control (Figures 3B, 4A-D); for Effect on glycolysis (ECAR): compared to control (Figures 3B, 4E-H); for Effect on glycolysis, cluster in dendrogram: clusters of Figure 3C; for Effect on proton leak-driven OCR: 24 h (Figure 4A-D)
Experimental: We previously described how ortho-carbonyl hydroquinone scaffolds inhibit oxidative phosphorylation in breast cancer cells. Since the reduction in glucose utilization and metabolism in intestinal cells is a promising target for T2DM treatment, the effect of these compounds on mitochondrial respiration and glycolysis in Caco-2 cells was determined. […] The effect of ortho-carbonyl hydroquinone series (100 µM) on five parameters of mitochondrial respiration (basal OCR, max OCR, spare capacity, ATP-linked OCR, and proton leak-driven OCR), and two of glycolysis (glycolytic capacity and glycolysis), is represented in a dendrogram (Figure 3C). […] OCR: compounds 1, 6, 7, and 9. […] No correlations between OCR and ECAR parameters, α-glucosidase activity inhibition, or ORAC were observed (Supplementary Figure S1).
In contrast, compound 10 increases the proton leak-OCR and decreases max OCR (Figure 4A–D).
To analyze the extracellular acidification rate (ECAR), Caco-2 cells (10,000 cells/well) were seeded on XFe96 V3-PS multi-well plates and kept for 24 h at 37 °C in 5% CO2 with a DMEM culture medium supplemented with FBS. After 24 h, the cells were stimulated by compounds at 100 μM for 24 h. Then, the culture medium was replaced with assay media (unbuffered DMEM without red phenol, with 4 mM glutamine and 10 mM glucose, pH = 7.4) 1 h before the assay. Glycolysis was evaluated by the sequential injection of 10 mM glucose, 1 µM oligomycin, and 100 mM 2-deoxy-D-glucose (2-DG), and ECAR was analyzed using specific excitation and emission wavelengths of protons (470/530 nm). To study the mitochondrial function, the sequential injection of 1 μM oligomycin, 250 nM FCCP, 1 μM rotenone, and 1 μM antimycin A was added. The oxygen consumption rate (OCR) measurements were made with the specific excitation and emission wavelengths of the fluorescent probes for oxygen (532/650 nm) using a Seahorse XFe96 Analyzer (Seahorse Agilent, USA), and OCR and ECAR data were normalized by protein content/well, which was determined using a BCA kit. Each experiment was performed at least in triplicate. The OCR/ECAR data analysis and dendrograms were performed using XLSTAT software (version 2023.2.1414, Lumivero, New York, NY, USA).

α-glucosidase = α-glucosidase inhibitory activity (p-nitrophenyl α-D-glucopyranoside substrate); type: biochemical; conditions: for pIC50 (α-glucosidase): pIC50 = −log[IC50], Figure 2A; for IC50: pH 6.9, 37 °C, 15 min, mean ± SD of three experiments, read-out: Inhibition of α-Glucosidase Activity IC50
Experimental: The inhibition of α-glucosidase was determined following a previous method [62] using p-nitrophenyl α-D-glucopyranoside as a substrate. The reaction mixture contained 160 µL of 0.1 M sodium phosphate buffer (pH = 6.9), 5 µL of enzyme (5.46 U/mL), and polyphenolic extract (0.17–1.36 µg/mL). After the pre-incubation of the reaction mixture on ice for 5 min, the enzyme reaction was started by adding 5 µL of 25 mM p-nitrophenyl α-D-glucopyranoside into this mixture. The reaction was incubated for 15 min at 37 °C. Then, 80 µL of 0.2 M sodium carbonate was added. The absorbance was measured at 405 nm in a microplate reader (Biotek ELx808, Agilent, Santa Clara, CA, USA). Enzyme inhibition was calculated using the following equation: % inhibition = (A0 − As)/A0 × 100, where A0 is the absorbance of the control (blank, without extract) and As is the absorbance in presence of the extract. IC50 values denote the µg GAE/mL required to inhibit the enzyme by 50%.

[2] = ORAC assay (oxygen radical absorbance capacity, ORAC-FL); conditions: radical scavenging against peroxyl radicals; mean ± SD of three experiments
Experimental: The radical-scavenging activities of the hydroquinone series against peroxyl radicals were assessed (ORAC assays). […] Similarly, for the series with the gem-diethyl group on ring B (compounds 6–10), compound 6 presents the highest antioxidant capacity (7.0 + 0.3 mol TE/mol compound). […] The replacement of the gem-dimethyl with the gem-diethyl group also decreases the antioxidant capacity.
The antioxidant activity was determined by ORAC (oxygen radical absorbance capacity) assays. Briefly, the antioxidant capacity for ORAC-FL was estimated by measuring the changes in fluorescence after 120 min of reaction with the radical. Assays were performed using a 96-well microplate in a Synergy H1 hybrid multi-mode microplate reader (Biotek, Winooski, VT, USA), and the results were expressed as µmol Trolox 100 g^−1 DW. Three replicates were accomplished for each analysis.

Caco-2 cells [3] = experiment: Menadione-induced cytosolic (DHE) and mitochondrial (MitoSOX) ROS by flow cytometry; type: cell-based, human; conditions: Caco-2, 100 and 200 µM for 24 h, then 25 µM menadione 1 h; for Effect on menadione-induced mitochondrial ROS production: MitoSOX Red
Experimental: Using menadione as an ROS inducer, the preventive effect of compounds 5 and 10 on mitochondrial and cytosolic ROS production was evaluated. No changes in the mitochondrial ROS production were observed (Figure 4I).
The mtROS and ROS levels were measured using MitoSOX® Red Mitochondrial Superoxide (Invitrogen, Carlsbad, CA, USA) and Invitrogen™ Dihydroethidium (Hydroethidine, DHE) probes, respectively. The Caco-2 cells were incubated in 12-well plates at 50,000 cells for 24 h. The cells were treated with compounds 5 and 10 at 100 μM and 200 μM for 24 h. Next, the cells were incubated with 25 μM menadione 25 μM for 1 h, and then the cells were washed with PBS and incubated with MitoSOX Red® (5 µM) or DHE (5 μM) for 30 min. Then, they were recollected, and washed, and the fluorescence was detected by flow cytometry according to Urra et al., 2018 [31].

Caco-2 cells [4] = experiment: MTT assay, cell proliferation; type: cell-based, human; conditions: Caco-2, 24 h treatment, 1-100 µM (Figure 3A)
Experimental: We evaluate the effect of ortho-carbonyl hydroquinones 1–10 on the intestinal Caco-2 cell line at 24 h of treatment.
Caco-2 cells were grown in Dulbecco’s modified Eagle’s Medium/Nutrient Mixture F-12 (D-MEM/F-12), supplemented with 5% fetal bovine serum (FBS), penicillin (100 IU/mL), streptomycin (100 μg/mL), and nonessential amino acid solution 1% (GIBCO, Thermo Fisher Scientific, Grand Island). The culture media contained no exogenous pyruvate supplementation, and the cells were maintained in a humidified atmosphere at 37 °C and 5% CO2.
The cell proliferation was determined using the MTT assay. The cells were incubated in 96-well plates at 7000 cells per well and incubated for 24 h. The cells were treated for 24 h with compounds (1, 5, 10, 30, 50, and 100 μM). After treatment, the culture medium was removed, and the cells were incubated with MTT for 1 h at 37 °C. Finally, 100 μL of DMSO was added and measured by spectrophotometry at 570 nm, as previously described.

SMILES	Effect on max OCR (Caco-2 cells [1])	Effect on basal mitochondrial OCR (Caco-2 cells [1])	Effect on glycolysis (ECAR) (Caco-2 cells [1])	Effect on glycolysis, cluster in dendrogram (Caco-2 cells [1])	pIC50 (α-glucosidase) (α-glucosidase)	IC50 (α-glucosidase)	ORAC [2]	melting point	Effect on menadione-dependent cytosolic ROS production (Caco-2 cells [3]; DHE)	Effect on menadione-induced mitochondrial ROS production (Caco-2 cells [3])	Effect on proton leak-driven OCR (Caco-2 cells [1])	Effect on MTT reduction (Caco-2 cells [4])	Effect on max OCR (Caco-2 cells [1]; listed as compound 10)
CC1(C)C=CC(=O)c2c(O)ccc(O)c21 [Compound 1, 5,8-Dihydroxy-4,4-dimethylnaphthalen-1(4H)-one]	strong inhibitory effect on max. OCR	reduces the basal mitoOCR	increases ECAR	glycolysis enhancers	3.72	–	–	–	–	–	–	–	–
Cc1cc(O)c2c(c1O)C(C)(C)C=CC2=O [Compound 2, 5,8-Dihydroxy-4,4,6-trimethylnaphthalen-1(4H)-one]	reduced effect on max OCR	–	reduces the glycolysis	glycolysis inhibitors	3.85	140 µM	5.5 ± 0.2 mol TE/mol Compound	–	–	–	–	–	–
Cc1cc(O)c2c(c1O)C(=O)C=CC2(C)C [Compound 3, 5,8-Dihydroxy-4,4,7-trimethylnaphthalen-1(4H)-one]	reduced effect on max OCR	–	reduces the glycolysis	glycolysis inhibitors	3.26	> 500 µM	3.9 ± 0.1 mol TE/mol Compound	204 °C	–	–	–	–	–
Cc1c(C)c(O)c2c(c1O)C(=O)C=CC2(C)C [Compound 4, 5,8-Dihydroxy-4,4,6,7-tetramethylnaphthalen-1(4H)-one]	reduced effect on max OCR	lacking effect on OCR	increases the glycolysis	glycolysis inhibitors	3.61	245 µM	1.05 ± 0.03 mol TE/mol Compound	–	–	–	–	–	–
CC1=CC(C)(C)c2c(O)c(C)c(C)c(O)c2C1=O [Compound 5, 5,8-Dihydroxy-2,4,4,6,7-pentamethylnaphthalen-1(4H)-one]	reduced effect on max OCR; also recorded: reduces	reduces	reduces the glycolysis; also recorded: significantly reduce the glycolysis	glycolysis inhibitors	3.98	103 µM	0.37 ± 0.01 mol TE/mol Compound	199.9 to 201.5 °C	significantly prevented	No changes	without affecting	significantly increased the MTT reduction	–
CCC1(CC)C=CC(=O)c2c(O)ccc(O)c21 [Compound 6, 4,4-Diethyl-5,8-dihydroxynaphthalen-1(4H)-one]	strong inhibitory effect on max. OCR	reduces the basal mitoOCR	increases ECAR	glycolysis enhancers	3.71	195 µM	7.0 ± 0.3 mol TE/mol Compound	–	–	–	–	decreased the MTT reduction	–
CCC1(CC)C=CC(=O)c2c(O)cc(C)c(O)c21 [Compound 7, 4,4-Diethyl-5,8-dihydroxy-6-methylnaphthalen-1(4H)-one]	strong inhibitory effect on max. OCR	lacking effect on OCR	increases the glycolysis	glycolysis enhancers	3.96	110 µM	7.2 ± 0.4 mol TE/mol Compound	–	–	–	–	–	–
CCC1(CC)C=CC(=O)c2c(O)c(C)cc(O)c21 [Compound 8, 4,4-Diethyl-5,8-dihydroxy-7-methylnaphthalen-1(4H)-one]	reduced effect on max OCR	–	reduces the glycolysis	glycolysis inhibitors	4.20	60 µM	5.9 ± 0.3 mol TE/mol Compound	198.2 °C	–	–	–	–	–
CCC1(CC)C=CC(=O)c2c(O)c(C)c(C)c(O)c21 [Compound 9, 4,4-Diethyl-5,8-dihydroxy-6,7-dimethylnaphthalen-1(4H)-one]	strong inhibitory effect on max. OCR	–	reduces the glycolysis	glycolysis enhancers	3.29	> 500 µM	0.83 ± 0.03 mol TE/mol Compound	174.9 to 179.8 °C	–	–	–	–	–
CCC1(CC)C=C(C)C(=O)c2c(O)c(C)c(C)c(O)c21 [Compound 10, 4,4-Diethyl-5,8-dihydroxy-2,6,7-trimethylnaphthalen-1(4H)-one]	reduced effect on max OCR	–	reduces the glycolysis; also recorded: significantly reduce the glycolysis	glycolysis inhibitors	4.10	78 µM	0.10 ± 0.01 mol TE/mol Compound	–	–	No changes	increases	significantly increased the MTT reduction	decreases
